Entries after “also recorded” stand apart in the source; their conditions may differ.
What was measured:
[1] = system: C57-diet induced obesity (DIO) mouse model; assay: Histological scoring of hepatic steatosis in the C57-DIO mouse model; assay type: in vivo; conditions: C57-DIO mice; for fatty liver phenotype / hepatic steatosis by liver histology (H&E): once-daily IP injection for 12 days, 10 mg/kg body weight
Description: The C57-diet induced obesity (DIO) mouse model was used in this study as a disease model for fatty liver disease and hepatic insulin resistance (FIG. 4). It was observed that eighty percent of the C57-DIO animals develop the fatty liver phenotype at 20-weeks, which highly correlates with insulin resistance penetrance and poor glycemic control. […] In humans, progressive accumulation of hepatic triglycerides is associated with metabolic syndrome/T2D and leads to impairment of insulin action in the liver. The two guiding phenotypic indicators of test compound efficacy in earlier studies were: histological scoring of hepatic steatosis, and intraperitoneal (IP) glucose tolerance.
Singly housed mice raised on a 60%-fat diet (20-week old males purchased from Sax labs) with extensive fatty liver were treated with the test compound for 12 days via daily intraperitoneal injection (IP). […] In addition, coats of treated animals were drier (FIG. 4B vs. C), consistent with reduction in triglycerides (also observed in the DGAT1 mouse knockout with dry coat).
During initial animal screening, we developed a quantitative histomorphometry platform software using components of the open-source CellProfiler software for automatically quantifying/scoring liver lipid content through lipid droplet detection in entire liver sections. In brief, entire H&E liver slides are scanned at 400× total magnification using an Aperio ScanScope slide scanner. For automated lipid phenotyping, we 1) detect entire pieces of tissue, 2) identify individual lipid droplets based on size and shape and, 3) measure mean droplet size and droplet density per […]. This automated quantitation of liver lipid phenotype, supervised and verified by a trained veterinary pathologist (PI Yi), offers an unbiased and simple method for comparing compound effects. Results from manual scoring of average degree of steatosis in cohorts are; Sham-90%, B127443-27% and are in good agreement with machine-aided scoring results as shown in FIG. 6.

CAR3 = CAR3 level in liver of treated mice (Western blot, 2D-DiGE); assay type: in vivo, mouse
Description: (§1) The expression and proteomic studies were implemented with particular interest in lipid/energy metabolism pathways.

FGF21 = FGF21 expression in liver of treated C57-DIO mice (Western blot, qPCR, microarray); assay type: in vivo, mouse
Description: as §1

[2] = system: C57-diet induced obesity mouse model; assay: Intraperitoneal glucose tolerance testing (IP-GTT) in C57-DIO mice; assay type: in vivo
Procedure: Glucose tolerance testing (IP-GTT) was performed via an IP injection of a 10% glucose solution at […] body weight within a 10 mL/kg body weight volume. Blood glucose was monitored pre and post injection at 15-minute intervals for 60 minutes using a standard glucometer. IP-GTT was chosen over oral GTT to bypass gut hormone signaling (GLP-1) for a more direct assessment of hepatic insulin resistance. IPGTT was performed on animals both prior to and after the 12-day test compound administration period to glean both individual animal responses and cohort averaged responses.

[3] = system: genes involved in lipid/energy metabolism; assay: Gene chip microarray analysis of sham and drug treated liver; assay type: in vivo, mouse; conditions: treated vs sham liver
Description: The expression and proteomic studies were implemented with particular interest in lipid/energy metabolism pathways. […] We are also particularly interested in Car3, since this gene represents ˜30% of soluble protein in adipose tissue, goes up in adipocytes (˜2-fold) in response to high fat diet, but goes down in the liver dramatically in response to energetic starvation. Finally, Car3 is negatively regulated by insulin signaling and thus might reflect insulin sensitivity. FGF21 and Car3 are good biomarkers for liver function in response to metabolic changes.

[4] = drug treated at 10 mg/kg vs. vehicle
[5] = trials on large numbers of mice

Compound: O=C(Nc1ccc([N+](=O)[O-])cc1Cl)c1cc(Cl)ccc1O [Example B-127443, Niclosamide]
- fatty liver phenotype / hepatic steatosis by liver histology (H&E) ([1]; 10 mg/kg): dramatic therapeutic effects; also recorded: reversal of fatty phenotype
- fatty liver phenotype / hepatic steatosis by liver histology (H&E) ([1]; listed as B127443, 10 mg/kg): efficacious; also recorded: robust responses
- average degree of steatosis in cohorts, manual scoring ([1]; Sham 90%): 27%
- CAR3 in liver, Western blot (CAR3; [4]): significant reduction
- CAR3 protein level in liver, comparative proteomics (2D-DiGE) (CAR3; livers of treated mice): significantly lower levels of CAR3 protein
- Car3 expression (CAR3; [5]): decreasing
- FGF21 expression in liver, Western blot (FGF21; [4]): stimulation
- FGF21 expression (FGF21; [5]): increases
- glucose tolerance (IP-GTT), individual animals before and after treatment ([2]; 12-day treatment with 5 mg/kg, Animals 1,3): improved glucose tolerance
- glucose tolerance (IP-GTT) ([2]; 12-day treatment, 10 mg/kg, cohort average (n=6) vs sham, 10 mg/kg): markedly improved; also recorded: marked improvement in glucose tolerance
- expression of genes involved in lipid/energy metabolism (FGF21, Fitm1, Fitm2, CideC, Cyp7A1, chn) [3]: significantly changed the expression of many genes involved in lipid/energy metabolism
